Tests used:
[1] = system: anaesthetised rabbit model of sexual arousal; test: Enhancement of VIP-induced increases in vaginal blood flow, anaesthetised rabbit model; format: in vivo; details: for effect on VIP-induced increases in vaginal blood flow: at clinically relevant doses
Description: (§1) A ventral midline incision was made, at the caudal end of the pubis, to expose the pubic area. Connective tissue was removed to expose the tunica of the clitoris, ensuring that the wall was free from small blood vessels. The external vaginal wall was also exposed by removing any connective tissue. One laser Doppler flow probe was inserted 3 cm into the vagina, so that half the probe shaft was still visible. A second probe was positioned so that it lay just above the external clitoral wall. The position of these probes was then adjusted until a signal was obtained. A second probe was placed just above the surface of a blood vessel on the external vaginal wall. Both probes were clamped in position.
(§2) Vaginal and clitoral blood flow was recorded either as numbers directly from the Flowmeter using Po-ne-mah data acquisition software (Ponemah Physiology Platform, Gould Instrument Systems Inc), or indirectly from Gould chart recorder trace. Calibration was set at the beginning of the experiment (0-125 ml/min/100 g tissue).
An initial infusion of Hepsaline (50UI/ml) was infused to act as a negative control.
(§3) NEP (Neutral Endopeptidase EC3.4.24.11; Sequence No. 1) inhibitors, phosphodiesterase type 5 (PDE5) inhibitors and NPY Y1 antagonists were made up in saline or 5% glucose solution (200 μl 50% glucose in 1.8 ml water for injection). PDEcAMP inhibitors were dissolved in a 40% ethanol solution (200 μl 50% glucose in 1.8 ml water/ethanol for injection).

[2] = system: anaesthetised rabbit model of sexual arousal; test: Enhancement of pelvic nerve stimulated (PNS) increases in vaginal blood flow, anaesthetised rabbit model; format: in vivo; details: for effect on pelvic nerve stimulated increases in vaginal blood flow: at clinically relevant doses
Description: (§4) A ventral midline incision was made into the abdominal cavity. The incision was about 5 cm in length just above the pubis. The fat and muscle was bluntly dissected away to reveal the hypogastric nerve which runs down the body cavity. It was essential to keep close to the side curve of the pubis wall in order to avoid damaging the femoral vein and artery which lie above the pubis. The sciatic and pelvic nerves lie deeper and were located after further dissection on the dorsal side of the rabbit. Once the sciatic nerve is identified, the pelvic nerve was easily located. The term pelvic nerve is loosely applied; anatomy books on the subject fail to identify the nerves in sufficient detail. However, stimulation of the nerve causes an increase in vaginal and clitoral blood flow, and innervation of the pelvic region. The pelvic nerve was freed away from surrounding tissue and a Harvard bipolar stimulating electrode was placed around the nerve. The nerve was slightly lifted to give some tension, then the electrode was secured in position. Approximately 1 ml of light paraffin oil was placed around the nerve and electrode. This acts as a protective lubricant to the nerve and prevents blood contamination of the electrode. The electrode was connected to a Grass S88 Stimulator. The pelvic nerve was stimulated using the following parameters: −5V, pulse width 0.5 ms, duration of stimulus 10 seconds and a frequency range of 2 to 16 Hz. Reproducible responses were obtained when the nerve was stimulated every 15-20 minutes.
(§5) A frequency response curve was determined at the start of each experiment in order to determine the optimum frequency to use as a sub-maximal response, normally 4 Hz. The compound(s) to be tested were infused, via the femoral vein, using a Harvard 22 infusion pump allowing a continuous 15 minute stimulation cycle.
as §1, §2, §3

isolated rabbit vagina [3] = test: Enhancement of VIP-induced relaxation of precontracted isolated rabbit vagina by test agents; format: cell-based; details: for Percentage enhancement of VIP(Sequence No. 8)-induced relaxation: PDE inhibitor at selective dose, isolated rabbit vagina, 1 μM phenylephrine; for effect on VIP-induced and nerve-mediated relaxations of isolated tissue: at clinically relevant doses
Description: (§6) 3.7 (a). Rabbit vagina in vitro preparation:—Female New Zealand white rabbits (2.0-3.0 kg) were killed by cervical dislocation. The abdominal cavity was opened and the vagina excised. Tissue strips were mounted longitudinally in Wesley Co. 5 ml silanised organ chambers with braided silk sutures (6/0 gauge) at an initial resting tension of 1.5 g in Krebs bicarbonate buffer maintained at 37° C. and gassed with 95%O2/5%CO2. The upper ligature of each tissue strip was attached to a 10 g capacity force-displacement transducer and changes in isometric force were measured and recorded using a DART in vitro data capture system. Tissues were allowed to equilibrate for 1.5 hours and were regularly washed with Krebs.
(§7) Each tissue was contracted using 1 μM bath concentration of phenylephrine. […] Tissues then received either a test agent (eg NEP or PDE inhibitor) or DMSO vehicle (time matched control).
(§8) For the purpose of curve fitting the minimum relaxation response was constrained to 0% and the maximum relaxation response was allowed to free fit.

[4] = system: anaesthetised rabbit model of sexual arousal; test: Enhancement of pelvic nerve stimulated increases in clitoral blood flow, anaesthetised rabbit model; format: in vivo
Description: as §4
as §5, with “cycle. […]” for “cycle.”
Vaginal and clitoral blood flow was recorded either as numbers directly from the Flowmeter using Po-ne-mah data acquisition software (Ponemah Physiology Platform, Gould Instrument Systems Inc), or indirectly from Gould chart recorder trace. […]

isolated rabbit vagina [5] = test: Electrical field stimulated (EFS) relaxation of isolated rabbit vagina; format: cell-based
Description: Rabbit vaginal strips were prepared as described in Section 3.7 (a). The tissue strips were mounted between two platinum electrodes placed at the top and bottom of the organ chamber approximately 4 cm apart. Each tissue was contracted using 1 μM bath concentration of phenylephrine. When the contractile response reached a stable plateau (15 minutes), the tissues underwent a pre-treatment electrical field stimulated (EFS) induced relaxation curve. This was performed between 40-60 volts using sequential frequencies of 2, 4, 8 and 16 Hz delivered as 10 second trains of 0.5 milli second pulse width. The tissues were allowed to return to base line pre-contractile tension between each frequency (5 minutes) and the size of the relaxation response recorded.
After completion of the pre-treatment EFS response curve, all tissues were washed for 15 minutes, allowing the tissues to return to the baseline tension. Tissues then received either a test agent (eg NEP or PDE inhibitor, nitric oxide synthase [NOS] inhibitor) or DMSO vehicle (time matched control). Tissues were re-contracted with phenylephrine (1 μM) 15 minutes after the addition of compound or vehicle and an EFS-induced relaxation response curve determined as described above. […]

[6] = system: anaesthetised rabbit model of sexual arousal; test: Increase in clitoral blood flow after iv infusion of vasoactive agents, anaesthetised rabbit model; format: in vivo; details: forskolin 40 nmol/kg iv
Description: as §1, §2

isolated rabbit vagina [7] = test: Relaxation of precontracted (1 μM phenylephrine) isolated rabbit vaginal strips; format: cell-based; details: Oryctolagus cuniculus, precontracted with 1 μM phenylephrine
Description: as §6, §7, §8

## COc1ccc(Cc2nc3c(ncn3C(CCCc3ccccc3)C(C)=O)c(=O)[nH]2)cc1OC (centres unmarked) [FII, 9-(1-acetyl-4-phenylbutyl)-2-[(3,4-dimethoxyphenyl)methyl]-1,9-dihydro-6H-purin-6-one]
[1]; 200 μg/kg
  enhancement of peak increase in blood flow induced by VIP-stimulation: circa 15±3%
[1]; VIP 60 μg/kg, measured at 50% amplitude
  enhancement of duration of VIP-induced increases in peak vaginal blood flow: over 100%
[1]
  effect on VIP-induced increases in vaginal blood flow: enhances
[1]; inhibitor 25 μg/kg iv bolus, VIP 60 μg/kg iv bolus
  effect on VIP-induced enhanced vaginal blood flow: potentiates the duration
[2]; 200 μg/kg, 4 Hz
  enhancement of peak increase in blood flow induced by pelvic nerve stimulation: circa 15±3%
[2]; 500 μg/kg iv, 4 Hz
  enhancement of peak increase in PNS vaginal blood flow: 86.8±21.9%
[2]
  effect on pelvic nerve stimulated increases in vaginal blood flow: enhances
Isolated rabbit vagina [3]
  Percentage enhancement of VIP(Sequence No. 8)-induced relaxation: 130%
Isolated rabbit vagina [3]; inhibitor at 8 nM
  potentiation of VIP EC50 values: 130%

## C=CCC(CC1(C(=O)NC2CCCC(C(=O)OCC)C2)CCCC1)C(=O)O (centres unmarked) [FV, cyclohexanecarboxylic acid, 3-[[[1-(2-carboxy-4-pentenyl)cyclopentyl]carbonyl]amino]-,1-ethyl ester]
[1]
  effect on VIP-induced increases in vaginal blood flow: enhance
[2]
  effect on pelvic nerve stimulated increases in vaginal blood flow: enhance
Isolated rabbit vagina [3]
  effect on VIP-induced and nerve-mediated relaxations of isolated tissue: enhance

## C=CCC(CC1(C(=O)NC2CCCC(C(=O)O)C2)CCCC1)C(=O)O (centres unmarked) [FVI, cyclohexanecarboxylic acid, 3-[[[1-(2-carboxy-4-pentenyl)cyclopentyl]carbonyl]amino]-]
[1]; VIP dose producing maximal flow increases
  increase in duration of VIP-induced elevation of vaginal blood flow: circa 80%
[1]; VIP dose producing maximal flow increases, 11 minutes without inhibitor
  duration of VIP-induced elevation in presence of inhibitor: 20 min
[1]
  effect on VIP-induced increases in vaginal blood flow: enhance
[1]; maximal VIP 60 μg/kg
  effect on VIP-induced enhanced vaginal blood flow: only potentiate the duration
[1]; submaximal VIP 6.0 μg/kg
  effect on VIP-induced enhanced vaginal blood flow: both potentiates the amplitude and prolongs the duration
  potentiation of peak VIP-induced increase in vaginal blood flow: 95±6%
  prolongation of duration of VIP-induced increase in vaginal blood flow: circa 140%
[1]; submaximal VIP 6.0 μg/kg, 7 minutes without inhibitor
  duration of VIP-induced increase in presence of inhibitor: > 17 min
[2]; 0.1 mg/kg iv, submaximal stimulation 4 Hz
  enhancement of peak increase in PNS vaginal blood flow: 35.0±7.6%
[2]; 0.3 mg/kg iv, submaximal stimulation 4 Hz, listed as NEP inhibitor
  enhancement of peak increase in PNS vaginal blood flow: 40%
[2]
  effect on pelvic nerve stimulated increases in vaginal blood flow: enhance
[2]; compared to time matched control increases
  maximal enhancement of peak increase in PNS vaginal blood flow (up to): up to 53%
[2]; no pelvic nerve stimulation
  effect on basal (unstimulated) vaginal blood flow: no effect
Isolated rabbit vagina [3]
  effect on VIP-induced and nerve-mediated relaxations of isolated tissue: enhance
[4]; 1.0 mg/kg iv, 4 Hz
  enhancement of peak increase in PNS clitoral blood flow: 131%
[4]; compared to vehicle control increases
  maximal enhancement of peak increase in PNS clitoral blood flow (up to): up to 131%
[4]; no pelvic nerve stimulation
  effect on basal (unstimulated) clitoral blood flow: no effect
Isolated rabbit vagina [5]; 1 μM
  effect on non-nitric oxide NANC relaxation induced by EFS: enhances

## Cc1nc(O)c(C#N)cc1-c1ccncc1 [FIII, Milrinone]
Isolated rabbit vagina [3]
  Percentage enhancement of VIP(Sequence No. 8)-induced relaxation: 220%
Isolated rabbit vagina [3]; inhibitor at 3.4 μM
  potentiation of VIP EC50 values: 220%

## C=C[C@@]1(C)CC(=O)[C@]2(O)[C@@]3(C)[C@@H](O)CCC(C)(C)[C@@H]3[C@H](O)[C@H](OC(C)=O)[C@@]2(C)O1 [forskolin]
[6]
  increase in clitoral blood flow: 156%
Isolated rabbit vagina [7]; FIG. 4c
  IC50: ~300 nM
Isolated rabbit vagina [7]; read-out: EC50 for relaxation in isolated vaginal tissue
  EC50: 320 ± 20 nM

## COc1ccc(C2CNC(=O)C2)cc1OC1CCCC1 (centres unmarked) [FIV, Rolipram]
Isolated rabbit vagina [3]
  Percentage enhancement of VIP(Sequence No. 8)-induced relaxation: 160%
Isolated rabbit vagina [3]; inhibitor at 686 nM
  potentiation of VIP EC50 values: 160%

## NC(=NCCC[C@H](N)C(=O)O)N[N+](=O)[O-] [L-NOARG]
Isolated rabbit vagina [5]; 300 μM
  inhibition of EFS-induced relaxations: 50%

Reference: patent publication US6734186B1, “Compounds for the treatment of female sexual dysfunction” (Pfizer Inc., priority 1999, dated 2004)
